{"source": "patent US12728168B2", "about": "“Anti-CEA antibody-exatecan analog conjugate and pharmaceutical use thereof” (JIANGSU HENGRUI MEDICINE CO., LTD., priority 2019, dated 2026)", "key": {"[1]": {"target": "T1, human CEACAM1 expressed on CHO cell surface (CEACAM1-CHO) (Homo sapiens, UniProt P13688)", "T1 construct": "expressed in transfected cells; host or cells: CHO cells", "T1 sequence (P13688 35-526)": "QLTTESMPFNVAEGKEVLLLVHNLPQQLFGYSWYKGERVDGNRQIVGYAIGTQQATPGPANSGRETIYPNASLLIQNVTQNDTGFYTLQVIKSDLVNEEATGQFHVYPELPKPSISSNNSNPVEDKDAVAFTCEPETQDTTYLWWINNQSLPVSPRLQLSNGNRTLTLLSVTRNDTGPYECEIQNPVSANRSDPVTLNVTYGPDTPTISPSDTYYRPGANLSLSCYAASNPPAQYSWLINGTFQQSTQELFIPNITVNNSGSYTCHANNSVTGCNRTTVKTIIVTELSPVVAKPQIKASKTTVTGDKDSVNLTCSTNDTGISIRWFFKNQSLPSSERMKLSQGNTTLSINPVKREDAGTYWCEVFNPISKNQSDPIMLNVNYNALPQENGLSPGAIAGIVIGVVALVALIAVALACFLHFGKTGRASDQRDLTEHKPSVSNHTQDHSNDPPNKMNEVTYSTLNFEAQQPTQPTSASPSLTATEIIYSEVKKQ", "test": "FACS binding assay, CEACAM1-CHO cells", "conditions": "Table 17, humanized antibodies and controls", "method": "(§1) In order to detect the binding of the antibody to the CEA protein on the cell surface, the binding activity of the antibody was determined by FACS using cells expressing CEA on the cell surface. Cells were harvested and centrifuged at 400 g at 4° C. for 5 min. Pre-cooled PBS containing FBS at final concentration 10% was added, and the mixture was centrifuged at 400 g at 4° C. for 5 min; the procedures were repeated twice. The cells were seeded into a 96-well plate at 10^5 cells/well, and 100 μL of gradient diluted antibody solution was added to each well. The plate was incubated at 4° C. for 60 min and centrifuged, and the supernatant was removed. 250 μL of pre-cooled PBS containing FBS at final concentration 10% was added to each well to resuspend the cells, and the suspension was centrifuged at 400 g at 4° C. for 5 min, followed by the removal of the supernatant; the procedures were repeated twice. 50 μL of 1:200 diluted secondary antibody Alexa Fluor@488 goat anti-human IgG (H+L) (Lifetechologies, Cat #A11013) was added. The plate was incubated in the dark at 4° C. for 45 min and centrifuged, and the supernatant was removed. 250 μL of pre-cooled PBS containing FBS at final concentration 10% was added to each cell to resuspend the cells, and the suspension was centrifuged at 400 g at 4° C. for 5 min; the procedures were repeated twice. 100 μL of pre-cooled PBS was added to each well to resuspend the cells. The plate was analyzed by a flow cytometer (BD, FACSverse) for fluorescence signal values. Higher values indicate higher binding activity of the antibody to the protein on the cell surface. Binding curves were plotted using PRISM analysis software based on the assay results, and the EC50 values for the binding activity of the antibody to the cell surface proteins human CEA (MKN45 human gastric cancer cells, Nanjing Kebai Biotechnology Co., Ltd., Cat #CBP60488), cynoCEA-CHO and CEACAM1-CHO were obtained by fitting."}, "[2]": {"system": "monkey CEA expressed on CHO cell surface (cynoCEA-CHO)", "sequence (as listed by the source)": "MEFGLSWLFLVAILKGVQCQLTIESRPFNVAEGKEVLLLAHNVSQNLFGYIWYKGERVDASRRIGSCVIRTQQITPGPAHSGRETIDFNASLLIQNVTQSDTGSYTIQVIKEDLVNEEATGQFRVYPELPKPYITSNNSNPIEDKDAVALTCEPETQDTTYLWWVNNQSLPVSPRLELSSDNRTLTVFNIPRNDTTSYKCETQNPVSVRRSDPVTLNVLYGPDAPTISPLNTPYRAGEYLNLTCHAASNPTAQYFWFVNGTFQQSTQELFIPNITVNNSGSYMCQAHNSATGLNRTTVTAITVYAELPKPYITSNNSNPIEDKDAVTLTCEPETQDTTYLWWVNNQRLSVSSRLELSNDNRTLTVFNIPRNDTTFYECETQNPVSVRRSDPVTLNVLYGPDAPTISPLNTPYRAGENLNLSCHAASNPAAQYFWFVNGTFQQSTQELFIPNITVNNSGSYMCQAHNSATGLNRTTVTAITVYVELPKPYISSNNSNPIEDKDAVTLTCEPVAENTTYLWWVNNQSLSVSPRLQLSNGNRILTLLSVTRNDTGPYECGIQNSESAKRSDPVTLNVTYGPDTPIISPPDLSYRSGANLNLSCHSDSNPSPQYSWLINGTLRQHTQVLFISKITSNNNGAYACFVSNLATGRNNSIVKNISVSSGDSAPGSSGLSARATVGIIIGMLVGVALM", "test": "FACS binding assay, cynoCEA-CHO cells", "design": "species or system cynomolgus monkey", "conditions": "Table 17, humanized antibodies and controls", "method": "as §1, with “The cells were seeded into a 96-well plate at 10^5 cells/well, and 100 μL of gradient diluted antibody solution was added to each well.” left out, “values.” for “values. Higher values indicate higher binding activity of the antibody to the protein on the cell surface. Binding curves were plotted using PRISM analysis software based on the assay results, and the EC50 values for the binding activity of the antibody to the cell surface proteins human CEA (MKN45 human gastric cancer cells, Nanjing Kebai Biotechnology Co., Ltd., Cat #CBP60488), cynoCEA-CHO and CEACAM1-CHO were obtained by fitting.”"}, "human soluble CEA": {"target": "T2, human soluble CEA (Homo sapiens, UniProt P06731)", "T2 construct": "His6 (C); made in house; host or cells: 293E cells", "T2 sequence (P06731 with tags, fused parts or gaps)": "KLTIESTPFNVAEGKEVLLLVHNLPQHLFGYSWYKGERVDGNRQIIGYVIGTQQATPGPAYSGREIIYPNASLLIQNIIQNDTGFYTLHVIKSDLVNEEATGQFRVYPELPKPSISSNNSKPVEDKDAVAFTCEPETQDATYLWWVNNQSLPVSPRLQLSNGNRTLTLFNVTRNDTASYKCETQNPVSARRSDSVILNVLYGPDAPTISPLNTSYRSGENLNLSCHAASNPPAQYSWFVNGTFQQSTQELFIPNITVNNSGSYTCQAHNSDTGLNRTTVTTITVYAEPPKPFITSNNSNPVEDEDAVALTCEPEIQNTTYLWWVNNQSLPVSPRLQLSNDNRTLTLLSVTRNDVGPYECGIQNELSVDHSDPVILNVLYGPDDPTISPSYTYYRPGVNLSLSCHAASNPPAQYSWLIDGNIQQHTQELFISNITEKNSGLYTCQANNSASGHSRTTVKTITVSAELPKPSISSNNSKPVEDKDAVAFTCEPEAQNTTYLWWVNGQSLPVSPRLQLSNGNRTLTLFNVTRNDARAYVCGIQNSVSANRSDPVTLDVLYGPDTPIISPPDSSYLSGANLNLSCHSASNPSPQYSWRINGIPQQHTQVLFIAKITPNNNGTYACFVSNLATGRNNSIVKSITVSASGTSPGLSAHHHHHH", "test": "Affinity of antibodies for soluble CEA using Biacore", "format": "binding", "conditions": "1:1 Langmuir", "method": "The affinity of a test humanized antibody for human and monkey soluble CEA was determined using a Biacore (GE, T200) instrument. According to the method in the instructions of a human antibody capture kit (GE, Cat #BR-1008-39), the human antibody capture antibody was covalently conjugated to a biosensor chip CM5 (GE, Cat #BR-1005-30) of the Biacore instrument to affinity-capture a certain amount of the test antibody, then a series of concentration gradients of soluble CEA antigens were allow to flow through the surface of the chip, and reaction signals were detected in real time using Biacore, so that an association and dissociation curve was obtained. After each cycle of dissociation was completed, the biochip was washed and regenerated with a regeneration solution prepared in the human antibody capture kit. The data obtained from the experiment were fitted with the (1:1) Langmuir model using BIAevaluation version 4.1 software to obtain affinity values."}, "[3]": {"system": "HCT116 (without CEA expression)", "test": "Cytotoxicity of ADCs, Cell Titer-Glo, HCT116", "format": "cell-based", "conditions": "for IC50: 5 days", "method": "(§2) Following conjugation of humanized CEA antibodies to toxin 2-A, cytotoxicity of each ADC to cancer cell lines with different CEA expression levels was evaluated. The CEA-highly expressing cells MKN45, the CEA-moderately expressing cells LS174T and the CEA-expressing negative cells HCT116 were plated in 96-well plates; gradient-diluted ADC samples were added to the cells the next day, and the cells were cultured at 37° C. for 5 days. 50 μL of Cell Titer-Glo reagent (Promega, Cat #G9242) was added to each well, and after incubation for 10 min in the dark, the luminescence signals were detected by a cell imaging detector (BioTek, Cytation5). An inhibition curve was plotted with the detection results using PRISM analysis software, and fitted to obtain an IC50 value of the inhibitory activity of the ADC against cell proliferation."}, "[4]": {"system": "MKN45 xenograft tumor model", "test": "In vivo inhibitory activity against tumors, MKN45 xenograft", "design": "species or system BALB/c nude mice", "method": "(§3) The in vivo efficacy of the ADC molecules was evaluated using LS174T and MKN45 xenograft tumor models. BALB/c nude mice (SPF grade, Shanghai Slac Laboratory Animal Co., Ltd., certificate no.: 201833814, license no.: SCXK (Jiangsu) 2016-0010) were housed in a 12/12 hour light/dark cycle at a temperature of 23±1° C. with humidity at 40-50%, with food (standard sterilized feed for mice) and water ad libitum. The mice were acclimatized for 10 days in a laboratory environment before the start of the experiment and then inoculated subcutaneously on the right flank with LS174T cells (5×10^5 cells/mouse) or MKN45 cells (4×10^6 cells/mouse). Tumors were allowed to grow to a size of about 150 mm^3, and then the mice were randomized into groups of 8. After grouping, the mice in the experimental groups were intraperitoneally injected with ADC samples in a dose of 1 mg/kg or 3 mg/kg, and those in the blank control group were intraperitoneally injected with PBS, only once. The sizes of the tumors on the mice were observed, measured and recorded."}, "[5]": {"system": "MKN45 (with high CEA expression)", "test": "Cytotoxicity of ADCs, Cell Titer-Glo, MKN45", "format": "cell-based, human", "conditions": "for IC50: 5 days", "method": "as §2"}, "[6]": {"system": "LS174T (with moderate CEA expression)", "test": "Cytotoxicity of ADCs, Cell Titer-Glo, LS174T", "format": "cell-based", "conditions": "for IC50: 5 days", "method": "as §2"}, "[7]": {"system": "LS174T xenograft tumor model", "test": "In vivo inhibitory activity against tumors, LS174T xenograft", "design": "species or system BALB/c nude mice", "method": "as §3"}, "[8]": {"system": "MKN45 and HCT116 co-cultured", "test": "Bystander effect and cytotoxicity, MKN45 and HCT116 co-cultured", "format": "cell-based", "conditions": "ADC 4 nM, 5 days, FIG. 2", "method": "(§4) In order to evaluate the bystander effect and cytotoxicity of the ADC, the CEA-highly expressing cell line MKN45 and the CEA-expressing negative cell line HCT116 were cultured in a 6-well cell culture plate for 24 h, and then an ADC sample was added at a final concentration of 4 nM. The cells were cultured in a cell incubator at 37° C. for another 5 days.\n(§5) The cells were digested with pancreatin and collected, and CEA Monoclonal Antibody FITC (ThermoFisher, Cat #MA1-80578) was added at a final concentration of 10 μg/mL. The cells were incubated on ice in the dark for 1 h, washed twice with PBS, and counted using a flow cytometer."}, "HCT116 cultured alone": {"system": "HCT116 cultured alone", "test": "Bystander effect test, HCT116 cultured alone", "format": "cell-based", "conditions": "ADC 4 nM, 5 days, FIG. 2", "method": "as §4, §5"}, "[9]": {"conditions": "ADC batches of high DAR (6.29-7)"}, "[10]": {"conditions": "ADC batches of low DAR (3.97-4.8)"}}}
{"substance": "Lmab [reference compound]", "values": [{"measurement": "EC50 (nM) CEACAM1-CHO", "setting": "[1]", "result": "No binding"}, {"measurement": "EC50 (nM) cynoCEA-CHO", "setting": "[2]", "result": "No binding"}, {"measurement": "ka", "setting": "human soluble CEA", "result": 55800, "unit": "M⁻¹ s⁻¹"}, {"measurement": "kd", "setting": "human soluble CEA", "result": 0.000331, "unit": "s⁻¹"}]}
{"substance": "Lmab-CL2A-SN38: control ADC: toxin CL2A-SN38 conjugated to Lmab (labetuzumab)", "values": [{"measurement": "IC50", "setting": "[3]; [9]", "result": 0.428, "unit": "nM"}, {"measurement": "IC50", "setting": "[3]; [10]", "result": 1.06, "unit": "nM"}, {"measurement": "dependence of cytotoxicity on CEA expression level", "setting": "[3]; MKN45, LS174T and HCT116 compared", "result": "non-specific cytotoxicity"}, {"measurement": "Tumor inhibition rate (%)", "setting": "[4]; 3 mpk, intraperitoneal, only once, 3 mg/kg", "result": 13.51, "unit": "%"}, {"measurement": "effect on tumor volume", "setting": "[4]; FIG. 5, ranking among the 3-mpk groups", "result": "the worst inhibitory effect on tumors"}, {"measurement": "effect on tumor weight", "setting": "[4]; FIG. 6, last day, ranking among the 3-mpk groups", "result": "the worst inhibitory effect on tumors"}, {"measurement": "IC50", "setting": "[5]; [9]", "result": 0.665, "unit": "nM"}, {"measurement": "IC50", "setting": "[5]; [10]", "result": 1.59, "unit": "nM"}, {"measurement": "IC50 ratio HCT116/MKN45", "setting": "[5]; [9]", "result": 0.64}, {"measurement": "IC50 ratio HCT116/MKN45", "setting": "[5]; [10]", "result": 0.66}, {"measurement": "IC50", "setting": "[6]; [9]", "result": 0.346, "unit": "nM"}, {"measurement": "IC50", "setting": "[6]; [10]", "result": 0.662, "unit": "nM"}, {"measurement": "IC50 ratio HCT116/LS174T", "setting": "[6]; [9]", "result": 1.24}, {"measurement": "IC50 ratio HCT116/LS174T", "setting": "[6]; [10]", "result": 1.60}, {"measurement": "Tumor inhibition rate (%)", "setting": "[7]; 3 mpk, intraperitoneal, only once", "result": 33.44, "unit": "%"}, {"measurement": "effect on tumor volume", "setting": "[7]; FIG. 3, ranking among the 3-mpk groups", "result": "the worst inhibitory effect on tumors"}, {"measurement": "effect on tumor weight", "setting": "[7]; FIG. 4, last day, ranking among the 3-mpk groups", "result": "the worst inhibitory effect on tumors"}, {"measurement": "bystander effect and cytotoxicity", "setting": "[8]", "result": "very toxic"}, {"measurement": "toxicity to HCT116 cultured alone", "setting": "HCT116 cultured alone", "result": "very toxic"}]}
